{
  "source": "patent US5756491A",
  "about": "“Antiviral cobalt-organic compounds” (priority 1991, dated 1998); as to Toxicity effects: key: +: toxic; -: no toxicity; ±: mild toxicity; T: toxicity effects interfered with CPE rating",
  "key": {"HSV-1 McKrae Strain": {"test_system": "HSV-1 McKrae Strain", "assay": "Direct virucidal efficacy against HSV-1 on HFF monolayers", "assay_type": "cell-based", "details": "for virucidal efficacy (HSV-1 titer): Experiment 5 (Table 12), 24 h PI", "experimental": "HSV-1 McKrae Strain was diluted to a final concentration of 10^5 PFU/ml in minimal essential medium (MEM). Hereinafter, this dilution is referred to as the HSV-1 Suspension for convenience.\n(§1) With sufficient stirring, all the compounds completely dissolved.\nEach of the drug solutions were mixed with the HSV-1 Suspension in a 1:1 ratio. The drug and HSV-1 Suspension mixture was incubated at 37° C. for thirty minutes with agitation every ten minutes. After the incubation, fifty microliter aliquots were overlaid onto triplicate confluent human foreskin fibroblast (HFF) cell monolayers. The inoculum was absorbed for thirty minutes and then a medium containing the appropriate drug concentration in MEM was added to the monolayers to a final volume of 0.5 milliliters per culture-well. The monolayers were incubated at 37° C. The developing HSV-1 Cytopathology was monitored daily for two days by inverted light microscopy. Titers were calculated by multiple regression analysis. All data is presented as the average PFU/ml reduction at 24 and/or 48 hours after inoculation (PI).\n1. HSV-1 inoculated, non-compound treated HFF monolayers were included as \"positive controls\"; and […]"}, "[1]": {"test_system": "human foreskin fibroblast (HFF) cell monolayers", "assay": "Toxicity effects controls: sham-inoculated compound-treated HFF monolayers", "assay_type": "cell-based", "details": "Experiment 5 (Table 13)", "from_the_text": "as §1\nIn the tables, the symbols have the meaning indicated: […]"}, "RE strain HSV-1 [2]": {"test_system": "RE strain HSV-1", "assay": "HSV-1 recovery from tear film, cornea and trigeminal ganglia of treated rabbits", "assay_type": "in vivo, NZW rabbit", "from_the_text": "The specified number of NZW rabbits (1.5-2.0 kg) were used. Animals were received at least two days prior to inoculation to allow them to accommodate to the conditions in the vivarium facility. This conditioning of the animals prior to inoculation minimizes animal variability. After the accommodation, the animals received a slit-lamp examination to exclude any animals with pre-existing anterior segment ocular defects. Animals were bi-laterally inoculated by intrastromal injection of 10^5 PFU RE strain HSV-1. The animals were then replaced individually into cages.\n[…] This was carried out by obtaining tear film by swabbing the lower and upper conjunctival sacs and retaining the swab in the nasal fornix for 10 seconds. The swabs were eluted individually in HBSS. 50 μl aliquots of the virus-HBSS eluate were absorbed under confluent HFF cell monolayers for 5 minutes. The monolayers were hydrated with MEM, incubated at 37° C. and observed daily for 1 to 2 weeks to detect developing cytopathology consistent with HSV infection (HSV CPE).\n(§2) On day 10 PI, the animals were sacrificed, the corneal epithelium was scraped from the eyes and epithelial and corneal stromal cultures were preformed on HFF cell monolayers. The separation of epithelial virus from deeper stromal virus infection allows for analysis of HSV in these distinct corneal layers. Corneal epithelial and stromal co-cultures were evaluated daily by inverted light microscopy.\nAt sacrifice, trigeminal ganglia were removed, washed in HBSS, minced and floated over duplicate HFF cell monolayers. The cell co-cultures were monitored by inverted light microscopy for 2 weeks. Negative cultures were blind passaged twice at 7 day intervals. Detection of HSV CPE in the whole-cell co-cultures was scored either positive or negative. HSV recovery from inventive compound-treated, TFT-treated and placebo-treated trigeminal ganglia was compared and differences in recovery rates analyzed.\nas §2, with “7” for “10”, “performed” for “preformed”"}, "RE strain HSV-1 [3]": {"test_system": "RE strain HSV-1", "assay": "Topical efficacy in RE strain HSV-1-induced stromal keratitis in the rabbit", "assay_type": "in vivo, NZW rabbit", "experimental": "The following examples describe topical ocular evaluation of the inventive compounds during RE strain HSV-1-induced stromal keratitis in the rabbit. These evaluations included analysis of the topical efficacy of both the inventive compounds alone, or, in certain instances, in combination with trifluorothymidine (TFT). The evaluation was carried out by the combined analysis of both clinical and virological (HSV-1 recovery) parameters. The specified number of NZW rabbits (1.5-2.0 kg) were used. Animals were received at least two days prior to inoculation to allow them to accommodate to the conditions in the vivarium facility. This conditioning of the animals prior to inoculation minimizes animal variability. After the accommodation, the animals received a slit-lamp examination to exclude any animals with pre-existing anterior segment ocular defects. Animals were bi-laterally inoculated by intrastromal injection of 10^5 PFU RE strain HSV-1. The animals were then replaced individually into cages. On day number three post-inoculation (PI), the animals were evaluated by slit-lamp microscopy. Corneal stromal, iris and conjunctival disease were graded on an increasing scale of severity from 0+ to 4+. After evaluation, the animals were divided into a specified number of groups each containing an equal number of animals based on a matched corneal stromal involvement. Topical therapy was initiated immediately after animal groupings. All animals received daily slit-lamp evaluations from day 3 through 7 PI. The ocular HSV-1 induced disease severity was recorded daily. […] Differences in disease resolution and development of stromal alterations are statistically analyzed. Virus recovery during and after topical therapy was compared. The topical efficacy of Compounds 23 and 96 on stromal HSV-1 infection in the rabbit model of stromal keratitis was evaluated. All animals received daily slit lamp evaluations from day 3 through day 7 and on days 9 and 10 PI. The ocular HSV-1-induced disease severity was recorded daily. The topical efficacy of Compounds 23, 96 and 82 on stromal HSV-1 infection in the rabbit model of stromal keratitis was evaluated. All animals received daily slit lamp evaluations for day 3 through day 7 PI. The ocular HSV-1-induced disease severity was recorded daily. The topical efficacy of Compounds 23 and 96 in combination with TFT on stromal HSV-1 infection in the rabbit model of stromal keratitis was evaluated. Groups 1, 2 and 3 each have 5 animals for a total of 10 eyes per combination therapy. This allowed minimization of individual animal variability and performance of a statistical analysis on the results of the combination therapies. Groups 3, 4 and 5 have 2 animals each. These single-agent therapies were used to verify previously reported data on the efficacy of these compounds. The compounds are used at a lower frequency of delivery to match the dosing regimen of the combination-agent group. Consequently, the study also provides comparative information on Compounds 23 and 96 as a lower frequency of topical administration (4 times per day vs. 9 times per day in previous studies)."}},
  "data": [
    {"compound": "CC([O-])=CC(C)=NCCN=C(C)C=C(C)[O-].Cc1cnc[nH]1.Cc1cnc[nH]1.[Br-].[Co+3]", "note": "[Compound 97]", "values": [
      {"measurement": "virucidal efficacy (HSV-1 titer)", "setting": "HSV-1 McKrae Strain; Run 1, 0.0001 mg/ml", "result": "10^5 PFU/ml"},
      {"measurement": "virucidal efficacy (HSV-1 titer)", "setting": "HSV-1 McKrae Strain; Run 1, 0.001 mg/ml", "result": "10^5 PFU/ml"},
      {"measurement": "virucidal efficacy (HSV-1 titer)", "setting": "HSV-1 McKrae Strain; Run 1, 0.01 mg/ml", "result": "10^4 PFU/ml"},
      {"measurement": "virucidal efficacy (HSV-1 titer)", "setting": "HSV-1 McKrae Strain; Run 1, 0.1 mg/ml", "result": "10^1 PFU/ml"},
      {"measurement": "virucidal efficacy (HSV-1 titer)", "setting": "HSV-1 McKrae Strain; Run 1, 1 mg/ml", "result": 0, "unit": "PFU/ml"},
      {"measurement": "virucidal efficacy (HSV-1 titer)", "setting": "HSV-1 McKrae Strain; Run 1, 5 mg/ml", "result": 0, "unit": "PFU/ml"},
      {"measurement": "virucidal efficacy (HSV-1 titer)", "setting": "HSV-1 McKrae Strain; Run 2, 0.001 mg/ml", "result": "10^4 PFU/ml"},
      {"measurement": "virucidal efficacy (HSV-1 titer)", "setting": "HSV-1 McKrae Strain; Run 2, 0.01 mg/ml", "result": "10^1 PFU/ml"},
      {"measurement": "virucidal efficacy (HSV-1 titer)", "setting": "HSV-1 McKrae Strain; Run 2, 0.1 mg/ml", "result": 0, "unit": "PFU/ml"},
      {"measurement": "virucidal efficacy (HSV-1 titer)", "setting": "HSV-1 McKrae Strain; Run 2, 1 mg/ml", "result": 0, "unit": "PFU/ml"},
      {"measurement": "virucidal efficacy (HSV-1 titer)", "setting": "HSV-1 McKrae Strain; Run 2, 5 mg/ml", "result": 0, "unit": "PFU/ml"},
      {"measurement": "effective virucidal concentration IC50", "setting": "HSV-1 McKrae Strain; Experiment 5 (Table 14), HSV-1", "result": "0.1-.1 mg/ml"},
      {"measurement": "effective virucidal concentration IC90", "setting": "HSV-1 McKrae Strain; Experiment 5 (Table 14), HSV-1", "result": "100 to 1000", "unit": "µg/mL"},
      {"measurement": "toxicity effects", "setting": "[1]; 24 h, 0.00 mg/ml (so in the source)", "result": "-"},
      {"measurement": "toxicity effects", "setting": "[1]; 24 h, 0.01 mg/ml", "result": "-"},
      {"measurement": "toxicity effects", "setting": "[1]; 24 h, 0.5 mg/ml", "result": "-"},
      {"measurement": "toxicity effects", "setting": "[1]; 48 h, 0.00 mg/ml (so in the source)", "result": "-"},
      {"measurement": "toxicity effects", "setting": "[1]; 48 h, 0.01 mg/ml", "result": "-"},
      {"measurement": "toxicity effects", "setting": "[1]; 48 h, 0.5 mg/ml", "result": "-"},
      {"measurement": "toxicity effects", "setting": "[1]; 48 h, 5 mg/ml", "result": "+"}
    ]},
    {"compound": "O=c1[nH]c(=O)n([C@H]2C[C@H](O)[C@@H](CO)O2)cc1C(F)(F)F", "note": "[TFT, trifluorothymidine]", "values": [
      {"measurement": "HSV-1 recovery, corneal epithelium (C.E.)", "setting": "RE strain HSV-1 [2]; Example 3 (Table 22)", "result": 60, "unit": "%"},
      {"measurement": "HSV-1 recovery, corneal stroma (C.S.)", "setting": "RE strain HSV-1 [2]; Example 3 (Table 22)", "result": 60, "unit": "%"},
      {"measurement": "HSV-1 recovery, trigeminal ganglia (T.G.)", "setting": "RE strain HSV-1 [2]; Example 3 (Table 22)", "result": 60, "unit": "%"},
      {"measurement": "HSV-1 recovery, tear film (positive samples of total)", "setting": "RE strain HSV-1 [2]; Example 3 (Table 22), day 3 PI", "result": 100, "unit": "%"},
      {"measurement": "HSV-1 recovery, tear film (positive samples of total)", "setting": "RE strain HSV-1 [2]; Example 3 (Table 22), day 5 PI", "result": 80, "unit": "%"},
      {"measurement": "HSV-1 recovery, tear film (positive samples of total)", "setting": "RE strain HSV-1 [2]; Example 3 (Table 22), day 7 PI", "result": 30, "unit": "%"},
      {"measurement": "HSV-1 recovery, tear film (positive samples of total)", "setting": "RE strain HSV-1 [2]; Example 3 (Table 22), day 9 PI", "result": 0, "unit": "%"},
      {"measurement": "HSV-1 recovery, corneal stroma", "setting": "RE strain HSV-1 [2]; Example 5 (Table 23)", "result": 70, "unit": "%"},
      {"measurement": "HSV-1 recovery (positive cultures per total)", "setting": "RE strain HSV-1 [2]; Example 5 (Table 23), column 1", "result": 0, "unit": "%"},
      {"measurement": "HSV-1 recovery (positive cultures per total)", "setting": "RE strain HSV-1 [2]; Example 5 (Table 23), column 3", "result": 100, "unit": "%"},
      {"measurement": "HSV-1 recovery (positive cultures per total)", "setting": "RE strain HSV-1 [2]; Example 5 (Table 23), column 5", "result": 90, "unit": "%"},
      {"measurement": "HSV-1 recovery (positive cultures per total)", "setting": "RE strain HSV-1 [2]; Example 5 (Table 23), column 7", "result": 70, "unit": "%"},
      {"measurement": "efficacy ranking during stromal HSV-1 infection", "setting": "RE strain HSV-1 [3]; Example 3, all eyes, FIG. 1, 1 mg/ml (TFT 0.1%), 9x/day, 5 days", "result": "Compound 96>>Compound 23>TFT>Placebo"},
      {"measurement": "efficacy ranking, average stromal disease scores", "setting": "RE strain HSV-1 [3]; Example 4, FIG. 2", "result": "Compound 96>Compound 82>Compound 23>TFT=Placebo"},
      {"measurement": "effect on stromal disease severity/progression", "setting": "RE strain HSV-1 [3]; Example 5, FIG. 5, initial stromal disease <0.5 on day 3 PI", "result": "ineffective in reducing the stromal disease severity"},
      {"measurement": "effect on development and progression of stromal disease", "setting": "RE strain HSV-1 [3]; Example 5, FIG. 7, score <0.5 on day 3 PI, 4 times per day", "result": "ineffective in reducing the development and progression of stromal disease"}
    ]}
  ]
}
